In brackets after ≈: the same amount, converted by molar mass.
System: trypsin (serine protease)
Assay: serine protease
Format: biochemical

## O=c1c(O)c(-c2ccc(O)c(O)c2)oc2cc(O)cc(O)c12 [Quercetin]
  IC50: 295.44 µg/mL (≈ 978 µM)
